Laboratory results as given in ChEMBL document CHEMBL5532646, “Discovery of 4-(N-dithiobenzyl piperazine)-1,8-naphthalimide as a potent multi-target antitumor agent with good efficacy, limited toxicity, and low resistance” (Eur J Med Chem, 2024).
The source made the active and inactive calls. No cut-off for these calls is given here.

Key:
[1] = tested on: SK-OV-3; assay: Antiproliferative activity against human SK-OV-3 cells incubated for 48 hrs by MTT assay; assay type: functional, cell-based; details: SK-OV-3, 48 h
[2] = tested on: T-24; assay: Antiproliferative activity against human T24 cells incubated for 48 hrs by MTT assay; assay type: functional, cell-based; details: T-24, 48 h
[3] = tested on: MGC-803; assay: Antiproliferative activity against human MGC-803 cells incubated for 48 hrs by MTT assay; assay type: functional, cell-based; details: MGC-803, 48 h
[4] = tested on: HepG2; assay: Antiproliferative activity against human HepG2 cells incubated for 48 hrs by MTT assay; assay type: functional, cell-based; details: HepG2, 48 h
[5] = tested on: T-24; assay: Antiproliferative activity against human T24 cells xenografted in nude mouse model assessed as tumor inhibition rate at 5 mg/kg, ip administered once every two days for 21 days relative to control; assay type: functional; details: T-24, 504 h, time 21 day
[6] = tested on: SK-OV-3; assay: Antiproliferative activity against human SK-OV-3 cells xenografted in nude mouse model assessed as tumor inhibition rate at 5 mg/kg, ip administered once every two days for 21 days relative to control; assay type: functional; details: SK-OV-3, 504 h, time 21 day
[7] = tested on: HepG2; assay: Antiproliferative activity against human HepG2 cells xenografted in nude mouse model assessed as tumor inhibition rate at 15 mg/kg, ip administered once every two days for 21 days relative to control; assay type: functional; details: HepG2, 504 h, time 21 day
[8] = tested on: A549; assay: Antiproliferative activity against human A549 cells incubated for 48 hrs by MTT assay; assay type: functional, cell-based
[9] = Toxicity in nude mouse model xenografted with human T24 cells assessed as pathological change in heart at 5 to 15 mg/kg, ip administered once every two days for 21 days; assay type: organism-based, T-24; details: in vivo, 504 h, dose 5-15 mg/kg, time 21 day
[10] = tested on: A549/CDDP; assay: Antiproliferative activity against human A549/DDP cells incubated for 48 hrs by MTT assay; assay type: functional, cell-based
[11] = Toxicity in nude mouse model xenografted with human T24 cells assessed as pathological change in lung at 5 to 15 mg/kg, ip administered once every two days for 21 days; assay type: organism-based, T-24; details: in vivo, 504 h, dose 5-15 mg/kg, time 21 day
[12] = Toxicity in nude mouse model xenografted with human HepG2 cells assessed as pathological change in spleen at 5 to 15 mg/kg, ip administered once every two days for 21 days; assay type: organism-based; details: in vivo, 504 h, dose 5-15 mg/kg, time 21 day
[13] = Toxicity in nude mouse model xenografted with human T24 cells assessed as pathological change in spleen at 5 to 15 mg/kg, ip administered once every two days for 21 days; assay type: organism-based, T-24; details: in vivo, 504 h, dose 5-15 mg/kg, time 21 day
[14] = tested on: T-24; assay: Antiproliferative activity against human T24 cells xenografted in nude mouse model assessed as tumor inhibition rate at 15 mg/kg, ip administered once every two days for 21 days relative to control; assay type: functional; details: T-24, 504 h, time 21 day
[15] = Toxicity in nude mouse model xenografted with human HepG2 cells assessed as pathological change in lung at 5 to 15 mg/kg, ip administered once every two days for 21 days; assay type: organism-based; details: in vivo, 504 h, dose 5-15 mg/kg, time 21 day
[16] = Toxicity in nude mouse model xenografted with human T24 cells assessed as pathological change in liver at 5 to 15 mg/kg, ip administered once every two days for 21 days; assay type: organism-based, T-24; details: in vivo, 504 h, dose 5-15 mg/kg, time 21 day
[17] = Toxicity in nude mouse model xenografted with human HepG2 cells assessed as pathological change in heart at 5 to 15 mg/kg, ip administered once every two days for 21 days; assay type: organism-based; details: in vivo, 504 h, dose 5-15 mg/kg, time 21 day
[18] = Toxicity in nude mouse model xenografted with human HepG2 cells assessed as pathological change in liver at 5 to 15 mg/kg, ip administered once every two days for 21 days; assay type: organism-based; details: in vivo, 504 h, dose 5-15 mg/kg, time 21 day
[19] = tested on: HepG2; assay: Antiproliferative activity against human HepG2 cells xenografted in nude mouse model assessed as tumor inhibition rate at 5 mg/kg, ip administered once every two days for 21 days relative to control; assay type: functional; details: HepG2, 504 h, time 21 day

| SMILES | IC50 [1] | IC50 [2] | IC50 [3] | IC50 [4] | other results |
| --- | --- | --- | --- | --- | --- |
| CC(C)(C)OC(=O)N1CCN(c2ccc3c4c(cccc24)C(=O)N(Cc2ccc(Cl)cc2)C3=O)CC1 | 22.6 µM | 21.3 µM | 25.3 µM | 23.2 µM | – |
| CN(C)CCN1C(=O)c2cccc3c(N4CCN(C(=O)OC(C)(C)C)CC4)ccc(c23)C1=O | 10.2 µM | 6.91 µM | 10.9 µM | 11.4 µM | – |
| O=C(c1ccccc1)N1CCN(c2ccc3c4c(cccc24)C(=O)N(CCc2ccc(O)c(O)c2)C3=O)CC1 | 21.4 µM | 26.5 µM | 25.8 µM | 28.5 µM | – |
| O=C(c1ccccc1)N1CCN(c2ccc3c4c(cccc24)C(=O)N(Cc2ccc(Cl)cc2)C3=O)CC1 | 31 µM | 29.2 µM | 43.6 µM | 39.6 µM | – |
| CNCCN1C(=O)c2cccc3c(N4CCN(C(=O)OC(C)(C)C)CC4)ccc(c23)C1=O | 5.42 µM | 3.88 µM | 8.69 µM | 7.48 µM | – |
| CCCCN1C(=O)c2cccc3c(N4CCN(C(=S)SCc5ccccc5)CC4)ccc(c23)C1=O | 25.3 µM | 22.6 µM | 26.1 µM | 29.7 µM | – |
| CC(C)(C)OC(=O)N1CCN(c2ccc3c4c(cccc24)C(=O)N(c2nc4ccccc4[nH]2)C3=O)CC1 | > 50 µM | > 50 µM | > 50 µM | > 50 µM | – |
| O=C1c2cccc3c(N4CCN(C(=S)SCc5ccccc5)CC4)ccc(c23)C(=O)N1Cc1ccc(Cl)cc1 | 28.8 µM | 21.1 µM | 20.5 µM | 25.3 µM | – |
| CN(C)CCN1C(=O)c2cccc3cc(N)cc(c23)C1=O [AMONAFIDE] | – | – | – | 7.94 µM | inhibition in vivo at 5 mg/kg [5]: 70.6%; inhibition in vivo at 5 mg/kg [6]: 62.1%; inhibition in vivo at 15 mg/kg [7]: 62% |
| CCCCN1C(=O)c2cccc3c(N4CCN(C(=O)OC(C)(C)C)CC4)ccc(c23)C1=O | > 50 µM | > 50 µM | > 50 µM | > 50 µM | – |
| O=C1c2cccc3c(N4CCN(C(=S)SCc5ccccc5)CC4)ccc(c23)C(=O)N1Cc1ccccc1 | 30 µM | 31.7 µM | 38.9 µM | 40.6 µM | – |
| CC(C)(C)OC(=O)N1CCN(c2ccc3c4c(cccc24)C(=O)N(Nc2ccccn2)C3=O)CC1 | 17.8 µM | 12.4 µM | 16.5 µM | 15.3 µM | – |
| O=C1c2cccc3c(N4CCN(C(=S)SCc5ccccc5)CC4)ccc(c23)C(=O)N1Nc1ccccc1 | 30.8 µM | 22.4 µM | 19.4 µM | 28.4 µM | – |
| CC(C)(C)OC(=O)N1CCN(c2ccc3c4c(cccc24)C(=O)N(Nc2nc4ccccc4s2)C3=O)CC1 | 23.5 µM | 20.3 µM | 19.5 µM | 22.4 µM | – |
| O=C(c1ccccc1)N1CCN(c2ccc3c4c(cccc24)C(=O)N(Cc2ccccc2)C3=O)CC1 | 22.4 µM | 17.7 µM | 23.5 µM | 26.8 µM | – |
| O=C1c2cccc3c(N4CCN(C(=S)SCc5ccccc5)CC4)ccc(c23)C(=O)N1Nc1nc2ccccc2s1 | 24.6 µM | 20.4 µM | 18.5 µM | 23.7 µM | – |
| O=C1c2cccc3c(N4CCN(C(=S)SCc5ccccc5)CC4)ccc(c23)C(=O)N1Nc1ccccn1 | > 50 µM | > 50 µM | > 50 µM | > 50 µM | – |

| SMILES | IC50 [1] | IC50 [2] | IC50 [3] | IC50 [4] | other results |
| --- | --- | --- | --- | --- | --- |
| CNCCCN1C(=O)c2cccc3c(N4CCN(C(=O)c5ccccc5)CC4)ccc(c23)C1=O | 6.06 µM | 6.25 µM | 8.09 µM | 4.41 µM | – |
| O=C(c1ccccc1)N1CCN(c2ccc3c4c(cccc24)C(=O)N(Nc2ccccc2)C3=O)CC1 | 23.3 µM | 19.3 µM | 26.4 µM | 21.5 µM | – |
| CC(C)(C)OC(=O)N1CCN(c2ccc3c4c(cccc24)C(=O)N(CCc2ccc(O)c(O)c2)C3=O)CC1 | 26.4 µM | 25.1 µM | 32.4 µM | 30.5 µM | – |
| CN(C)CCN1C(=O)c2cccc3c(N4CCN(C(=O)c5ccccc5)CC4)ccc(c23)C1=O | 2.01 µM | 2.08 µM | 5.73 µM | 4.78 µM | Activity [8]: Active; inhibition in vivo at 5 mg/kg [5]: 55%; Activity [9]: Non-Toxic; Activity [10]: Active; Activity [11]: Non-Toxic; Activity [12]: Non-Toxic; Activity [13]: Non-Toxic; inhibition in vivo at 15 mg/kg [14]: 64.5%; Activity [15]: Non-Toxic; Activity [16]: Non-Toxic; inhibition in vivo at 15 mg/kg [7]: 54.5%; Activity [17]: Non-Toxic; Activity [18]: Non-Toxic; inhibition in vivo at 5 mg/kg [19]: 51.5% |
| O=C1c2cccc3c(N4CCN(C(=S)SCc5ccccc5)CC4)ccc(c23)C(=O)N1CCc1ccc(O)c(O)c1 | 35 µM | 31.2 µM | 34.7 µM | 31.1 µM | – |
| O=C1c2cccc3c(N4CCN(C(=S)SCc5ccccc5)CC4)ccc(c23)C(=O)N1CCc1ccc2c(c1)OCO2 | 10.5 µM | 14.6 µM | 12.1 µM | 11.8 µM | – |
| CC(C)(C)OC(=O)N1CCN(c2ccc3c4c(cccc24)C(=O)N(CCc2ccc4c(c2)OCO4)C3=O)CC1 | 4.16 µM | 3.69 µM | 5.78 µM | 4.31 µM | – |
| CC(C)(C)OC(=O)N1CCN(c2ccc3c4c(cccc24)C(=O)N(Cc2ccccc2)C3=O)CC1 | > 50 µM | > 50 µM | > 50 µM | > 50 µM | – |
| O=C(c1ccccc1)N1CCN(c2ccc3c4c(cccc24)C(=O)N(CCc2ccc4c(c2)OCO4)C3=O)CC1 | 35.2 µM | 24.4 µM | 21.6 µM | 31.5 µM | – |
| O=C1c2cccc3c(N4CCN(C(=S)SCc5ccccc5)CC4)ccc(c23)C(=O)N1CCO | 14.3 µM | 16.4 µM | 18.5 µM | 16.8 µM | – |
| O=C(c1ccccc1)N1CCN(c2ccc3c4c(cccc24)C(=O)N(Nc2nc4ccccc4s2)C3=O)CC1 | 19.4 µM | 24.1 µM | 27.5 µM | 22.4 µM | – |
| O=C(c1ccccc1)N1CCN(c2ccc3c4c(cccc24)C(=O)N(Nc2ccccn2)C3=O)CC1 | 29.5 µM | 32.4 µM | 35.3 µM | 38.5 µM | – |
| CNCCCN1C(=O)c2cccc3c(N4CCN(C(=O)OC(C)(C)C)CC4)ccc(c23)C1=O | 13.1 µM | 8.45 µM | 17.4 µM | 9.75 µM | – |
| O=c1[nH]cc(F)c(=O)[nH]1 [FLUOROURACIL] | – | 40.1 µM | – | 25.5 µM | – |
| O=C(c1ccccc1)N1CCN(c2ccc3c4c(cccc24)C(=O)N(CCO)C3=O)CC1 | 16.4 µM | 20.4 µM | 19.5 µM | 17.4 µM | – |
| CC(C)(C)OC(=O)N1CCN(c2ccc3c4c(cccc24)C(=O)N(CCO)C3=O)CC1 | 9.13 µM | 7.41 µM | 8.81 µM | 7.62 µM | – |
| CCCCN1C(=O)c2cccc3c(N4CCN(C(=O)c5ccccc5)CC4)ccc(c23)C1=O | 15.4 µM | 10.4 µM | 11.2 µM | 14.3 µM | – |
